Test results from US20050175567A1, “Hair care compositions containing phenolic styling agents” (priority 2002, published 2005).

Test: Curl dropout of treated hair curls in high humidity chamber
Conditions: 1% by weight solution in water; curls soaked 1 hour, rinsed, dried 30 minutes; 90% RH, 30° C., fan agitation, 1 minute
Procedure: Three solutions were formulated each containing 1% by weight of either 2,5 dihydroxybenzoic acid, 3,4 dihydroxybenzoic acid or 3,5 dihydroxybenzoic acid. Hair curls were made up using perming rods and 30 cm length hair.
The curls were placed in the solution for 1 hour, rinsed thoroughly with distilled water and dried for 30 minutes. The hair was removed from the curling rod and the length of the curl measured.
The hair was hung in high humidity environmental chamber (90% RH, 30° C.) with fan agitation for 1 minute and measured again.
O=C(O)c1cc(O)ccc1O [2,5 dihydroxybenzoic acid] gave a Curl dropout % of 17.1%. Compound O=C(O)c1ccc(O)c(O)c1 [3,4 dihydroxybenzoic acid] has a Curl dropout % of 29%. O=C(O)c1cc(O)cc(O)c1 [3,5 dihydroxybenzoic acid] gave a Curl dropout % of 26%.
